Measured values: patent US6974870B2, “Substituted 3-amino-thieno [2,3-b]pyridine-2-carboxylic acid amide compounds and processes for preparing and their uses” (Boehringer Ingelheim Phamaceuticals, Inc., priority 2002, dated 2005)

target: T1, human IKKβ (Homo sapiens, UniProt O14920); experiment: IKKβ kinase inhibition assay (phosphorylation of IκBα substrate, 33P-ATP); type: biochemical; conditions: flag-tagged human IKKβ 0.9 μg/ml, GST-IκBα (1-54) 53 μg/ml, 250 nM ATP, 1 hour at 25° C.
T1 construct: FLAG (N)
T1 sequence (O14920 1-756): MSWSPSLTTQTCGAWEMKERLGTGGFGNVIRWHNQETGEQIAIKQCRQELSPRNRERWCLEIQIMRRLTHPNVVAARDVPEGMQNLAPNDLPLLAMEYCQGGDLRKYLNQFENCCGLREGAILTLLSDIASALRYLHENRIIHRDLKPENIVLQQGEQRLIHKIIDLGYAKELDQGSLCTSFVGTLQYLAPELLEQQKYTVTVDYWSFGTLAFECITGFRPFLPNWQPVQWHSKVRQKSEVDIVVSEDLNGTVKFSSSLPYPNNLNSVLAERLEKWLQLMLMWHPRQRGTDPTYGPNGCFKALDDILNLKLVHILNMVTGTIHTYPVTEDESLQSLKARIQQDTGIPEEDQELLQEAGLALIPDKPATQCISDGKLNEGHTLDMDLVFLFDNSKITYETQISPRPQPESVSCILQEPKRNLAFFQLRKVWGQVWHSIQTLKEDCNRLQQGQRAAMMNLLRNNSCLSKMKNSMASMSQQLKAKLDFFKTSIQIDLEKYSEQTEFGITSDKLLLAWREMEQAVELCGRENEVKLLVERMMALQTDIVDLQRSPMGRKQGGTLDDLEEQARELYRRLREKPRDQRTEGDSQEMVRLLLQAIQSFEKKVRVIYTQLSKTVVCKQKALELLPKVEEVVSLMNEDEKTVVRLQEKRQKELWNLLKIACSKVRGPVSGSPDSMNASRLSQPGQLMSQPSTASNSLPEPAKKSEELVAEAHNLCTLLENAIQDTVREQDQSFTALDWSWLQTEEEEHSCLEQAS
Protocol: The inhibition of IKKα and IKKβ by the compounds of the present invention was determined with the following assay that measures the phosphorylation of the IκBα substrate by the respective kinases. The enzymes used in the assay were N-terminally flag-tagged versions of the human IKKβ or IKKα and the substrate was a GST fusion protein with IκBα (amino acids 1-54).
The reaction mixtures (60 μl) contained 20 mM HEPES pH 7.5, 10 mM MgCl2, 2 mM MnCl2, 100 mM NaCl, 100 μM Na3VO4, 20 mM β-glycerophosphate, 1 mM DTT, 2% DMSO, 250 nM ATP, 0.4 nM [^33P]ATP (specific activity, 3000 Ci/mmol), IκBα substrate, IKK enzyme and test compound. The reaction mixtures contained either 3.6 μg/ml IKKα and 245 μg/ml IκBα or 0.9 μg/ml IKKβ and 53 μg/ml IκBα.
Reactions were initiated by adding a solution of IκBα substrate and ATP to polypropylene plates containing IKK enzyme that was pre-incubated for 5 minutes with test compound. Then the reaction mixtures were incubated for 1 hour at 25° C., placed on ice and quenched by the addition of 150 μl 10% trichloroacetic acid and 5% disodium pyrophosphate. After mixing, the entire contents of the quenched reaction mixtures were transferred to a pre-wetted Packard UniFilter filtration plate, aspirated and washed 6 times with 250 μl of ddH2O using the Packard Filtermate Harvester. Filtration plates were then air dried, supplemented with 40 μl of Microscint 20 scintillation fluid and the ^33P-labeled reaction products were quantified using the Packard TopCount scintillation counter.
Compounds were tested in three-fold serial dilutions and inhibitor concentrations to achieve 50% inhibition of enzyme activity (i.e., IC50) were derived from dose-reponse curves using SAS software (SAS Institute, Cary N.C.). A non-linear regression analysis based on the Hill equation was applied to the percent inhibition versus concentration data. In all cases, compound concentrations were verified by HPLC.

IC50, < 1000 nM:
CCCc1cc(N2CCC(NCC(O)COc3ccc(F)cc3)CC2)nc2sc(C(N)=O)c(N)c12 (centres unmarked) [3-Amino-6-{4-[3-(4-fluoro-phenoxy)-2-hydroxy-propylamino]-piperidin-1-yl}-4-propyl-thieno[2,3-b] pyridine-2-carboxylic acid amide]
CCCc1cc(N2CCC(NCC(=O)Nc3cccc(C(N)=O)c3)CC2)nc2sc(C(N)=O)c(N)c12 [3-Amino-6-(4-{[(3-carbamoyl-phenylcarbamoyl)-methyl]-amino}-piperidin-1-yl)-4-propyl-thieno[2,3-b] pyridine-2-carboxylic acid amide]
CCCc1cc(N2CCC(NCC(O)COc3cccc(C#N)c3)CC2)nc2sc(C(N)=O)c(N)c12 (centres unmarked) [3-Amino-6-{4-[3-(3-cyano-phenoxy)-2-hydroxy-propylamino]-piperidin-1-yl}-4-propyl-thieno[2,3-b] pyridine-2-carboxylic acid amide]
CCCc1cc(N2CCC(NCCc3ccc(C(N)=O)cc3)CC2)nc2sc(C(N)=O)c(N)c12 [3-Amino-6-{4-[2-(4-carbamoyl-phenyl)-ethylamino]-piperidin-1-yl}-4-propyl-thieno[2,3-b] pyridine-2-carboxylic acid amide]
NC(=O)c1sc2nc(N3CCC(NCC(O)c4ccc(-c5ccccc5)cc4)CC3)cc(C(F)(F)F)c2c1N (centres unmarked) [3-Amino-6-[4-(2-biphenyl-4-yl-2-hydroxy-ethylamino)-piperidin-1-yl]-4-trifluoromethyl-thieno[2,3-b]pyridine-2-carboxylic acid amide]
NC(=O)c1sc2nc(N3CCC(NCC(O)c4ccc(-c5ccncc5)cc4)CC3)cc(C(F)(F)F)c2c1N (centres unmarked) [3-Amino-6-{4-[2-hydroxy-2-(4-pyridin-4-yl-phenyl)-ethylamino]-piperidin-1-yl}-4-trifluoromethyl-thieno[2,3-b]pyridine-2-carboxylic acid amide]
CCCc1cc(N2CCC(NCC(O)c3ccc(-c4cnccn4)cc3)CC2)nc2sc(C(N)=O)c(N)c12 (centres unmarked) [3-Amino-6-{4-[2-hydroxy-2-(4-pyrazin-2-yl-phenyl)-ethylamino]-piperidin-1-yl}-4-propyl-thieno[2,3-b] pyridine-2-carboxylic acid amide]
NC(=O)c1sc2nc(N3CCC(NCCO)CC3)cc(C(F)(F)F)c2c1N [3-Amino-6-[4-(2-hydroxy-ethylamino)-piperidin-1-yl]-4-trifluoromethyl-thieno[2,3-b]pyridine-2-carboxylic acid amide]
CCCc1cc(N2CCC(NCC(O)COc3ccc(C#N)cc3)CC2)nc2sc(C(N)=O)c(N)c12 (centres unmarked) [3-Amino-6-{4-[3-(4-cyano-phenoxy)-2-hydroxy-propylamino]-piperidin-1-yl}-4-propyl-thieno[2,3-b] pyridine-2-carboxylic acid amide]
CCCc1cc(N2CCC(NC[C@@H](O)COc3ccccc3)CC2)nc2sc(C(N)=O)c(N)c12 [3-Amino-6-[4-((R)-2-hydroxy-3-phenoxy-propylamino)-piperidin-1-yl]-4-propyl-thieno[2,3-b] pyridine-2-carboxylic acid amide]
CCCc1cc(N2CCC(NCC(O)Cc3cccc(C(N)=O)c3)CC2)nc2sc(C(N)=O)c(N)c12 (centres unmarked) [3-Amino-6-{4-[3-(3-carbamoyl-phenyl)-2-hydroxy-propylamino]-piperidin-1-yl}-4-propyl-thieno[2,3-b] pyridine-2-carboxylic acid amide]
CCCc1cc(N2CCC(NCC(O)C(=O)Nc3ccccc3)CC2)nc2sc(C(N)=O)c(N)c12 (centres unmarked) [3-Amino-6-[4-(2-hydroxy-2-phenylcarbamoyl-ethylamino)-piperidin-1-yl]-4-propyl-thieno[2,3-b] pyridine-2-carboxylic acid amide]
CCCc1cc(N2CCC(NCC(O)COCc3ccccc3)CC2)nc2sc(C(N)=O)c(N)c12 (centres unmarked) [3-Amino-6-[4-(3-benzyloxy-2-hydroxy-propylamino)-piperidin-1-yl]-4-propyl-thieno[2,3-b] pyridine-2-carboxylic acid amide]
NC(=O)c1sc2nc(N3CCC(NCC(O)c4ccc(-c5ccccn5)cc4)CC3)cc(C(F)(F)F)c2c1N (centres unmarked) [3-Amino-6-{4-[2-hydroxy-2-(4-pyridin-2-yl-phenyl)-ethylamino]-piperidin-1-yl}-4-trifluoromethyl-thieno[2,3-b]pyridine-2-carboxylic acid amide]
CCCc1cc(N2CCC(NCC(O)c3ccc(-c4cncnc4)cc3)CC2)nc2sc(C(N)=O)c(N)c12 (centres unmarked) [3-Amino-6-{4-[2-hydroxy-2-(4-pyrimidin-5-yl-phenyl)-ethylamino]-piperidin-1-yl}-4-propyl-thieno[2,3-b] pyridine-2-carboxylic acid amide]
CCCc1cc(N2CCC(NCC(O)CNc3ccccc3)CC2)nc2sc(C(N)=O)c(N)c12 (centres unmarked) [3-Amino-6-[4-(2-hydroxy-3-phenylamino-propylamino)-piperidin-1-yl]-4-propyl-thieno[2,3-b] pyridine-2-carboxylic acid amide]
CCCc1cc(N2CCC(NCC(O)C(=O)NCc3ccccc3)CC2)nc2sc(C(N)=O)c(N)c12 (centres unmarked) [3-Amino-6-[4-(2-benzylcarbamoyl-2-hydroxy-ethylamino)-piperidin-1-yl]-4-propyl-thieno[2,3-b] pyridine-2-carboxylic acid amide]
CCCc1cc(N2CCC(NCC(O)COc3cccc4ccccc34)CC2)nc2sc(C(N)=O)c(N)c12 (centres unmarked) [3-Amino-6-{4-[2-hydroxy-3-(naphthalen-1-yloxy)-propylamino]-piperidin-1-yl}-4-propyl-thieno[2,3-b] pyridine-2-carboxylic acid amide]
CCCc1cc(N2CCC(NC[C@H](O)COc3ccccc3)CC2)nc2sc(C(N)=O)c(N)c12 [3-Amino-6-[4-((S)-2-hydroxy-3-phenoxy-propylamino)-piperidin-1-yl]-4-propyl-thieno[2,3-b] pyridine-2-carboxylic acid amide]
CCCc1cc(N2CCC(NCC(O)c3ccc(-c4ccccc4)cc3)CC2)nc2sc(C(N)=O)c(N)c12 (centres unmarked) [3-Amino-6-[4-(2-biphenyl-4-yl-2-hydroxy-ethylamino)-piperidin-1-yl]-4-propyl-thieno[2,3-b] pyridine-2-carboxylic acid amide]
CCCc1cc(N2CCC(NCC(O)COc3ccc(C(F)(F)F)cc3)CC2)nc2sc(C(N)=O)c(N)c12 (centres unmarked) [3-Amino-6-{4-[2-hydroxy-3-(4-trifluoromethyl-phenoxy)-propylamino]-piperidin-1-yl}-4-propyl-thieno[2,3-b] pyridine-2-carboxylic acid amide]
CCCc1cc(N2CCC(NCC(O)CNc3cccc(C(N)=O)c3)CC2)nc2sc(C(N)=O)c(N)c12 (centres unmarked) [3-Amino-6-{4-[3-(3-carbamoyl-phenylamino)-2-hydroxy-propylamino]-piperidin-1-yl}-4-propyl-thieno[2,3-b] pyridine-2-carboxylic acid amide]
CCCc1cc(N2CCC(NCC(O)CCc3ccccc3)CC2)nc2sc(C(N)=O)c(N)c12 (centres unmarked) [3-Amino-6-[4-(2-hydroxy-4-phenyl-butylamino)-piperidin-1-yl]-4-propyl-thieno[2,3-b] pyridine-2-carboxylic acid amide]
